Laboratory results: patent publication US9645147B2, “Recombinant polypeptide construct comprising Plasmodium falciparum circumsporozoite protein HLA class I restricted T-cell epitopes” (priority 2013, dated 2017)
Entries after “also recorded” stand apart in the source; their conditions may differ. Peptide text beside a SMILES is read from it.

Tests used:
Format in all cases: cell-based, human
[1] = tested on: PBMC from volunteers immunized with Ad-CA or Ad-C; assay: IFN-γ ELISpot assay with cryopreserved PBMC of immunized volunteers; settings: for Epitope sfc/m: Table 4; for ELISpot response to synthesized epitope (in words): volunteers, positive = p<0.05, at least doubling and at least ten sfc over negative control
Experimental: Previous studies have confirmed that recall-T cell responses, as assayed by ELISpot, are detected using cryopreserved PBMCs although such responses are generally of a lower magnitude than fresh cells (Sedegah, et al., Malar J., 9: 241 (2011)).
The positive control was commercially obtained Class I Peptide Pool Plus (Anaspec, USA). Negative control was media with all supplements but no antigen-specific stimulant.
Throughout the studies, IFN-γ ELISpot assays were conducted as previously described (Sedegah, et al., Malar J., 9: 241 (2011); Wang, et al., PNAS (USA), 98: 10817-22 (2001)). Cryopreserved PBMC were suspended in 100 μL complete medium and stimulated with CSP peptides in 100 μL of complete medium at a final concentration of 10 μg/mL of each peptide tested (Wang, et al., PNAS (USA), 98: 10817-22 (2001)).
Cultures were incubated for 36 hours at 37° C., 5% CO2. Depending on availability of cells, each PBMC sample was assayed in duplicate, triplicate, or quadruplicate and the number of IFN-γ-secreting spot forming cells (sfc) was counted using an automated ELISpot reader (AID, GmbH, Germany). In duplicate assays, all values were used in analysis. […] The mean number of sfcs obtained in negative control wells was subtracted from the value of each test well from the same sample. Negative counts generated by this background subtraction were converted to zero. The mean number of spots of the test sample was then calculated and expressed as spot forming cells/million (sfc/m). A positive response was defined as a significant difference (p=<0.05) between average of the number of spot forming cells (sfc) in test wells and the average of negative control wells (Student's two tailed t-test), and at least a doubling of sfc in test wells relative to negative control wells, and a difference of at least ten sfc between test and negative control wells (Sedegah, et al., PLoS One, 6: e24586 (2011)).

[2] = tested on: PBMC depleted of T-cell subsets; assay: ELISpot IFN-γ after T-cell subset depletion (CD4+ or CD8+ Dynabeads, mock control); settings: for confirmation as recalling CD8+ T cell responses: ELISpot depletion and ICS studies; for CD4+ depl. sfc/m: after CD4+ T cell depletion; for CD4+ depl. (%) percent change in ELISpot activity: after CD4+ T cell depletion vs control depletion; for CD8+ depl. sfc/m: after CD8+ T cell depletion; for CD8+ depl. (%) percent change in ELISpot activity: after CD8+ T cell depletion vs control depletion; for Control dept. sfc/m: mock (control) depletion; for percent reduction of ELISpot response after CD8+ T cell depletion: text summary over the four volunteers of Table 6
Description: For characterization of ELISpot IFN-γ-producing cells by T-cell subset depletions PBMC were depleted of T-cell subsets using anti-human CD4+ or anti-CD8+ coated Dynabeads M-450 (Dynal, Great Neck, N.Y.) following the manufacturer's instructions. Mock depletion was done with Dynabeads coated with sheep anti-mouse IgG. Flow cytometry confirmed that T-cell subset depletions were >99% in all experiments. Data are presented as the spot-forming cells/million (sfc/m) and percent decrease or increase in activity after depletion.
To further evaluate the predicted epitopes, ELISpot depletion assays were performed using PBMC from four volunteers stimulated with six predicted and tested epitopes. CD8+ T cell depletion reduced responses to Cp1 and Cp9 by 82%100%.

[3] = tested on: CD8+ T cells; assay: Intracellular cytokine staining (ICS), IFN-γ, CD8+ population; settings: for ICS CD8+ T cell recall responses (in words): ICS assays, volunteers of Table 6; for CD8+ % (per cent of CD8+ T cells expressing IFN-γ): ICS, positive >0.03%
Experimental: (§1) Intracellular cytokine staining (ICS) was performed as published previously (Stewart, et al, Infect. Immun., 75: 2283-90 (2007)). Cryopreserved PBMC were thawed, washed, and resuspended at 10×10^6 cells per mL in complete medium. Peptides were used at 10 μg/mL and costimulatory antibodies anti-CD28 and […] (BD Bioscience, San Jose, Calif.) were used at 1 μg/mL. Stimulants were added to cells and incubated at 37° C. with 5% CO2 for 2 hours. Cells were stained with anti-CD3, anti-CD4, anti-CD8, anti-IFN-γ, anti-TNFα, and anti-IL2 and the entire available sample was acquired on a BD LSRII using FACSDiVa (BD Bioscience) software. Data were analyzed using FlowJo Software (Treestar, Inc.). The gating strategy involved progressively measuring total cells; viable cells; lymphocytes; T cells; CD4+ or CD8+ populations; and finally a specific cell type expressing a specific cytokine. Results were transferred to Prism (GraphPad) for graphing and statistical analysis. Data for peptides were corrected for media responses. A positive response was greater than the medium controls+3 standard deviations (0.03%).

[4] = tested on: CD4+ T cells; assay: Intracellular cytokine staining (ICS), IFN-γ, CD4+ population; settings: for CD4+ % (per cent of CD4+ T cells expressing IFN-γ): ICS, positive >0.03%; for ICS CD4+ T cell recall responses (in words): ICS assays, volunteers of Table 6
Experimental: as §1

[5] = volunteer 40 (Ad-C), synthesized epitope, first of two assays
[6] = volunteer 40 (Ad-C), synthesized epitope, second assay (second value of the cell)

Row | Compound | ELISpot response to synthesized epitope (in words) [1] | confirmation as recalling CD8+ T cell responses [2] | percent reduction of ELISpot response after CD8+ T cell depletion [2] | ICS CD8+ T cell recall responses (in words) [3] | CD4+ depl. sfc/m ([2]; V156) | CD4+ depl. (%) percent change in ELISpot activity ([2]; V156) | CD8+ depl. sfc/m ([2]; V156) | CD8+ depl. (%) percent change in ELISpot activity ([2]; V156) | Control dept. sfc/m ([2]; V156) | CD8+ % (per cent of CD8+ T cells expressing IFN-γ) ([3]; V156) | ICS CD4+ T cell recall responses (in words) [4] | CD4+ % (per cent of CD4+ T cells expressing IFN-γ) ([4]; V156) | Epitope sfc/m [1, 5] | Epitope sfc/m [1, 6] | CD4+ depl. sfc/m ([2]; V40) | CD4+ depl. (%) percent change in ELISpot activity ([2]; V40) | CD8+ depl. sfc/m ([2]; V40) | CD8+ depl. (%) percent change in ELISpot activity ([2]; V40) | Control dept. sfc/m ([2]; V40) | CD8+ % (per cent of CD8+ T cells expressing IFN-γ) ([3]; V40) | other results
1 | SVSSFLFVEA (listed as Plasmodium falciparum) [Epitope E19, CSP aa 9-18] | moderately active; also recorded: demonstrated activity | confirmed as recalling CD8+ T cell responses | 9% | weakly positive | – | – | – | – | – | – | – | – | – | – | – | – | – | – | – | – | Epitope sfc/m ([1]; volunteer 125 (Ad-CA), synthesized 8-10mer epitope): 33 sfc/m; CD4+ depl. sfc/m ([2]; V125): 17 sfc/m; CD4+ depl. (%) percent change in ELISpot activity ([2]; V125): −78%; CD8+ depl. sfc/m ([2]; V125): 72 sfc/m; CD8+ depl. (%) percent change in ELISpot activity ([2]; V125): −9%; Control dept. sfc/m ([2]; V125): 79 sfc/m; CD8+ % (per cent of CD8+ T cells expressing IFN-γ) ([3]; V125): 0.06%; CD4+ % (per cent of CD4+ T cells expressing IFN-γ) ([4]; V125): 0.02%
2 | CC(C)C[C@H](NC(=O)[C@H](C)NC(=O)[C@H](CCC(=O)O)NC(=O)[C@@H](NC(=O)[C@H](Cc1ccccc1)NC(=O)[C@H](CC(C)C)NC(=O)[C@@H](N)Cc1ccccc1)C(C)C)C(=O)N[C@@H](Cc1ccccc1)C(=O)N[C@@H](CCC(N)=O)C(=O)O [Epitope E1a] (H-FLFVEALFQ-OH; N-terminus and C-terminus assumed) | demonstrated activity | confirmed as recalling CD8+ T cell responses | – | positive | 215 sfc/m | −12% | 91 sfc/m | −73% | 245 sfc/m | 0.34% | negative | 0.03% | – | – | – | – | – | – | – | – | –
3 | VFNVVNSSI [Epitope E13a] | demonstrated activity | confirmed as recalling CD8+ T cell responses | 56% | positive | – | – | – | – | – | – | negative | – | 104 sfc/m | 72 sfc/m | 43 sfc/m | −50% | 38 sfc/m | −56% | 86 sfc/m | 0.12% | CD4+ % (per cent of CD4+ T cells expressing IFN-γ) ([4]; V40): 0.01%
4 | CC(C)C[C@H](NC(=O)[C@H](C)NC(=O)[C@H](CCC(=O)O)NC(=O)[C@@H](NC(=O)[C@@H](N)Cc1ccccc1)C(C)C)C(=O)N[C@@H](Cc1ccccc1)C(=O)N[C@@H](CCC(N)=O)C(=O)N[C@@H](CCC(=O)O)C(=O)N[C@@H](Cc1ccc(O)cc1)C(=O)O [Epitope E2] | active; also recorded: demonstrated activity | confirmed as recalling CD8+ T cell responses | – | positive | – | – | – | – | – | – | negative | – | – | – | – | – | – | – | – | – | Epitope sfc/m ([1]; volunteer 69 (Ad-C), synthesized 8-10mer epitope): 268 sfc/m; Epitope sfc/m ([1]; volunteer 127 (Ad-CA), synthesized 8-10mer epitope): 89 sfc/m; CD4+ depl. sfc/m ([2]; V69): 254 sfc/m; CD4+ depl. (%) percent change in ELISpot activity ([2]; V69): −15%; CD8+ depl. sfc/m ([2]; V69): 8 sfc/m; CD8+ depl. (%) percent change in ELISpot activity ([2]; V69): −97%; Control dept. sfc/m ([2]; V69): 296 sfc/m; CD8+ % (per cent of CD8+ T cells expressing IFN-γ) ([3]; V69): 0.48%; CD4+ % (per cent of CD4+ T cells expressing IFN-γ) ([4]; V69): 0.00%
5 | CC(C)C[C@H](NC(=O)[C@H](C)NC(=O)[C@H](CCC(=O)O)NC(=O)[C@@H](NC(=O)[C@H](Cc1ccccc1)NC(=O)[C@H](CC(C)C)NC(=O)[C@H](Cc1ccccc1)NC(=O)[C@@H](N)CO)C(C)C)C(=O)N[C@@H](Cc1ccccc1)C(=O)O [Epitope E20] (H-SFLFVEALF-OH; N-terminus and C-terminus assumed) | moderately positive; also recorded: demonstrated activity | confirmed as recalling CD8+ T cell responses | – | positive | 273 sfc/m | +28% | 29 sfc/m | −86% | 213 sfc/m | 0.25% | negative | 0.01% | 313 sfc/m | 197 sfc/m | 226 sfc/m | −11% | 15 sfc/m | −94% | 254 sfc/m | 0.37% | Epitope sfc/m ([1]; volunteer 37 (Ad-C), synthesized epitope, second assay (second value of the cell)): 53, 53 sfc/m; Epitope sfc/m ([1]; volunteer 37 (Ad-C), synthesized epitope, single value or first of two assays): 53, 53 sfc/m; Epitope sfc/m ([1]; volunteer 68 (Ad-C), synthesized 8-10mer epitope): 34 sfc/m; Epitope sfc/m ([1]; volunteer 156 (Ad-CA), synthesized 8-10mer epitope): 240 sfc/m; CD4+ % (per cent of CD4+ T cells expressing IFN-γ) ([4]; V40): 0.04%
